Patent US20250170090A1, “METHOD FOR PREVENTING OR TREATING DISEASE OR DISORDER ASSOCIATED WITH ANTINEOPLASTIC AGENT” (ONQUALITY PHARMACEUTICALS CHINA LTD., priority 2022, published 2025)
Where two headings read alike, the source gives them in different places.

What was measured:
[1] = test system: anti-tumor agent-induced hand-foot syndrome; assay: Comparison of different mechanism compounds in preventing sorafenib-induced hand-foot syndrome in rats (Table 6); assay type: in vivo; conditions: Sorafenib 80 mg/kg once a day, Days 15
Method: After the rats (about 200 g) were acclimated for one week, they were divided into groups of 10 and then subjected to gavage administration experiments. The anti-tumor agent (the anti-tumor agent modeled by sorafenib) was dissolved in a mixed solution of Cremophor EL:ethanol=1:1, and diluted to the required concentration with PBS (diluted about 3 times with PBS solution) before gavage administration. After gavage, the hind paws of the rats were treated with ointments of different mechanisms (NO-releasing agent group, NO-releasing agent combined with clinical drug group, NSAID group), while the control group was treated with a blank ointment. After the application of the ointment, the rats were placed in a fixed cylinder for 4 hours. After 4 hours, the rats were released, and the residual drugs in the application site were wiped off with clean water, and the rats were returned to the cage. Different treatment groups were only applied once a day. Gavage and ointment application were repeated every day until the end of the experiment.
Table 6 lists the animal experimental combinations of various anti-tumor agents and ointments from different treatment groups, as well as the corresponding experimental results (where the value in the control rate column=the incidence rate of hand-foot syndrome in the blank group−the incidence rate of hand-foot syndrome in the treatment group).

[2] = test system: HUVEC cells; assay: CCK-8 cell viability: alleviation of proliferative toxicity of anti-tumor agents on HUVEC cells (Tables 7-1, 7-2); assay type: cell-based; conditions: Homo sapiens, 24 h, NO-NSAID 100 μM, percentage increase in viable cells vs anti-tumor agent alone, read-out: Response rate % (average)
Method: The cultured HUVEC cells were digested the suspended, counted, and seed into a 96-well plate with 5,000-10,000 cells per well. The wells are divided into the following groups: blank control group, anti-tumor agent group, anti-tumor agent+NO-NSAID group, anti-tumor agent solvent group, NO-NSAID control group. Wherein each well of each group contained a basic medium, and the final liquid volume contained in each well was about 100 μL. The grouping situation was as follows: • 1) Blank control group: no solution was added except normally replacing the medium; • 2) Anti-tumor agent group: added the anti-tumor agent solution (the final concentration was shown in Table 7-1 and Table 7-2, the solvent of the anti-tumor agent solution was DMSO); • 3) Anti-tumor agent+NO-NSAID group: added the anti-tumor agent solution and the NO-NSAID solution (the final concentrations of anti-tumor agent and NO-NSAID were shown in Table 7-1 and Table 7-2, and according to the solubility of NO-NSAID, the solvent of NO-NSAID solution was selected as ethanol or sterile water, and minor volume differences in each group were adjusted by added the corresponding solvent); • 4) Anti-tumor agent solvent group: an equal volume of DMSO as contained in the corresponding anti-tumor agent solution in Group 2) was added; • 5) NO-NSAID control group: the same volume and type of solvent (for example, ethanol or sterile water) corresponding to the NO-NSAID contained in group 3) was added.
The anti-tumor agent solvent group was not involved in data processing and was only used as a reference for evaluating experimental system error. The NO-NSAID solvent control group was used for data correction to eliminate the influence of the solvent on the results.
After culturing for 24-48 hours, the Cell Counting Kit-8 (CCK-8) detection kit (C0037, Shanghai Beyotime Biotechnology Co., Ltd., Beyotime Biotechnology) was used to determine the cell viability. This allows for the calculation of the proliferative toxicity of anti-tumor agent on cell and the mitigating effect of NO-NSAID on proliferative toxicity. The results were statistically analyzed and plotted using GraphPad Prism 6.0 software and t test.

[3] = test system: hand-foot syndrome induced by anti-tumor agents; assay: Prevention of hand-foot syndrome induced by anti-tumor agents in rats, NO-NSAID ointment on hind paws (Table 2-2); assay type: in vivo, SD rats; conditions: Rattus norvegicus, topical, 120 h, Sorafenib 80 mg/kg once a day, Days 5, read-out: Control rate
Source text: A rat animal model was constructed, and the anti-tumor agents shown in Table 2-2 were respectively administered to 8-week-old female SD rats by daily oral gavage. […] Therefore, rats serve as an excellent animal model for simulating side effects (such as hand-foot syndrome) caused by anti-tumor agents.
After the rats (about 200 g) were fed and adapted for one week, they were divided into a NO-NSAID group and a control group, with 10 rats in each group, and a gavage administration test was conducted. The various anti-tumor agents were dissolve in a mixed solution of Cremophor EL:ethanol=1:1. The anti-tumor agent solution were diluted with PBS to the required concentration (about 3 times with PBS solution) before gavage administration. After gavage, an ointment containing NO-NSAID was applied to the hind paws of the rats, while the control group was applied with a blank ointment. After application, the rats were placed in a fixed cylinder for 4 hours. After 4 hours, the rats were released and the residual ointment was wiped off with clean water, then the rats were returned to the cage. The gavage frequency of inhibitors was shown in Table 2-2, and NO-NSAID was only applied once a day. The gavage and application operations were repeated daily until the end of the experiment.
Table 2-2 lists the animal experimental combinations of various anti-tumor agents and NO-NSAID ointments, as well as the corresponding experimental results (wherein the value in the control rate column=the hand-foot syndrome incidence rate in the blank group−the hand-foot syndrome incidence rate in the treatment group).

CC(=O)Oc1ccccc1C(=O)O [Acetylsalicylic acid]
Control rate ([1]; ointment 1.00% wt): 14.29%

COc1ccc2cc(C(C)C(=O)OCC(CO[N+](=O)O)C[N+](=O)[O-])ccc2c1 (centres unmarked) [Compound A9]
activation at 100 µM ([2]; Afatinib (10 μM)): 32%
activation at 100 µM ([2]; Anlotinib (5 μM)): 58%
activation at 100 µM ([2]; Apatinib (10 μM)): 62%
activation at 100 µM ([2]; Axitinib (10 μM)): 45%
activation at 100 µM ([2]; Cabozantinib (5 μM)): 0%
activation at 100 µM ([2]; Dabrafenib (10 μM)): 35%
activation at 100 µM ([2]; Dacomitinib (5 μM)): 39%
activation at 100 µM ([2]; Encorafenib (5 μM)): 15%
activation at 100 µM ([2]; Erdafitinib (10 μM)): 42%
activation at 100 µM ([2]; Everolimus (5 μM)): 7%
activation at 100 µM ([2]; Famitinib (5 μM)): 33%
activation at 100 µM ([2]; Fruquintinib (10 μM)): 56%
activation at 100 µM ([2]; Gefitinib (10 μM)): 40%
activation at 100 µM ([2]; Infigratinib (15 μM)): 29%
activation at 100 µM ([2]; Lapatinib (5 μM)): 40%
activation at 100 µM ([2]; Lenvatinib (10 μM)): 43%
activation at 100 µM ([2]; Olmutinib (10 μM)): 42%
activation at 100 µM ([2]; Regorafenib (5 μM)): 40%
activation at 100 µM ([2]; Selumetinib (5 μM)): 36%
activation at 100 µM ([2]; Sorafenib (5 μM)): 48%
activation at 100 µM ([2]; Sunitinib (5 μM)): 16%
activation at 100 µM ([2]; Vemurafenib (5 μM)): 39%
responders at 1 % ([3]; ointment 1% wt): 28.6%
responders at 5 % ([3]; ointment 5% wt): 33.3%

CC(C(=O)OCC(CO[N+](=O)[O-])O[N+](=O)[O-])c1ccc(-c2ccccc2)c(F)c1 (centres unmarked) [Compound A10]
activation at 100 µM ([2]; Afatinib (10 μM)): 56%
activation at 100 µM ([2]; Anlotinib (5 μM)): 27%
activation at 100 µM ([2]; Apatinib (10 μM)): 58%
activation at 100 µM ([2]; Axitinib (10 μM)): -7%
activation at 100 µM ([2]; Cabozantinib (5 μM)): 49%
activation at 100 µM ([2]; Dabrafenib (10 μM)): 42%
activation at 100 µM ([2]; Dacomitinib (5 μM)): 37%
activation at 100 µM ([2]; Encorafenib (5 μM)): 33%
activation at 100 µM ([2]; Erdafitinib (10 μM)): 23%
activation at 100 µM ([2]; Everolimus (5 μM)): 21%
activation at 100 µM ([2]; Famitinib (5 μM)): 49%
activation at 100 µM ([2]; Fruquintinib (10 μM)): 59%
activation at 100 µM ([2]; Gefitinib (10 μM)): 40%
activation at 100 µM ([2]; Infigratinib (15 μM)): 32%
activation at 100 µM ([2]; Lapatinib (5 μM)): 32%
activation at 100 µM ([2]; Lenvatinib (10 μM)): 57%
activation at 100 µM ([2]; Olmutinib (10 μM)): 48%
activation at 100 µM ([2]; Regorafenib (5 μM)): 48%
activation at 100 µM ([2]; Selumetinib (5 μM)): 46%
activation at 100 µM ([2]; Sorafenib (5 μM)): 13%
activation at 100 µM ([2]; Sunitinib (5 μM)): 21%
activation at 100 µM ([2]; Vemurafenib (5 μM)): 63%

CC(C)Cc1ccc(C(C)C(=O)O)cc1 (centres unmarked) [Ibuprofen]
Control rate ([1]; ointment 2.00% wt): 0%

COc1ccc2cc([C@H](C)C(=O)O)ccc2c1 [Naproxen]
Control rate ([1]; ointment 2.50% wt): 16.67%

O=[N+]([O-])OCC(CO[N+](=O)[O-])O[N+](=O)[O-] [Nitroglycerin]
Control rate ([1]; ointment 0.20% wt): 60%
